In US4624954A, “6,7,8,9-tetrahydro-10-methylpyrido[1,2-a]indol-9-amines and derivatives thereof, useful for the treatment of cognitive impairments” (American Home Products Corporation, priority 1985, dated 1986):
Structures can show the parent of a compound that is named as a salt.

Test: Anoxia-induced lethality test in mice (survival in 100% nitrogen)
Assay type: in vivo, Male, CD-1 mice
Conditions: Mus musculus, ip, 30 minutes prior to testing; 100% nitrogen for 80 seconds; read-out: ED50, protected from anoxia-induced lethality in mice
Text: To test the protective ability of the compounds of formula I against the physical consequences of anoxia, mice were exposed to an atmosphere of pure nitrogen which killed all of the animals. Intraperitoneal pretreatment of mice with the compounds of formula I protected them against this lethal effect.
ANOXIA-INDUCED LETHALITY TEST IN MICE
The anoxia-induced lethality test in mice evaluates the activity of drugs which protect the animal from deleterious effects of oxygen-lack, such as occurs in conditions of cerebral ischemia. Activity is measured as the survival rate in mice exposed to 100% nitrogen for 80 seconds, a procedure which is lethal to […] of untreated animals.
Test compounds are dissolved in water, or suspended in 0.2% aqueous Tween 80 and are administered i.p., 30 minutes prior to testing. Several doses and a vehicle control are tested, with 8 mice receiving each dose.
Male, CD-1 mice weighing 18-20 g are used. Mice are held separately within a cage in a modified plastic, air-tight desiccator which is connected to a tank of compressed 100% nitrogen gas.
Delivery of the anoxic gas is controlled by means of a toggle valve, and exposure is terminated by rapidly removing the mice from the desiccator. All operations are timed with a stopwatch. An ED50 value is determined from the percentage of mice which survive in each group. Drugs which reduce the anoxia-induced lethality solely by lowering body temperature are excluded.

SMILES | ED50 [mg/kg]
Cc1c2n(c3ccccc13)CCCC2N(C)C.Cl (stereo not drawn) [Example 3, 6,7,8,9-Tetrahydro-N,N,10-trimethylpyrido[1,2-a]indole-9-amine Hydrochloride] | 13.5

Same assay, conditions: Mus musculus, ip, read-out: ED50, protected from anoxia-induced lethality in mice

SMILES | ED50 [mg/kg]
Cc1c2n(c3ccccc13)CCC(C)(C)C2N.Cl (stereo not drawn) [Example 29, 6,7,8,9-Tetrahydro-8,8,10-trimethylpyrido[1,2-a]indol-9-amine Hydrochloride] | 17.2
Cc1c2n(c3ccc(Br)cc13)CCCC2N1CCCCC1.Cl (stereo not drawn) [Example 19, 2-Bromo-6,7,8,9-tetrahydro-10-methyl-9-(1-piperidinyl)-pyrido[1,2-a]indole Hydrochloride] | 110
Cc1c2n(c3ccccc13)CCC(C)(C)C2N(C)C1CCCCC1 (stereo not drawn) [Example 32, N-Cyclohexyl-6,7,8,9-tetrahydro-N,8,8,10-tetramethylpyrido[1,2-a]indol-9-amine] | 8.8
Cc1c2n(c3ccc(Br)cc13)CCC(C)(C)C2N1CCCC1.Cl (stereo not drawn) [Example 17, 2-Bromo-6,7,8,9-tetrahydro-8,8,10-trimethyl-9-(1-pyrrolidinyl)pyrido[1,2-a]indole Hydrochloride] | 50
CNC1CCCn2c1c(C)c1ccc(OC)cc12.Cl (stereo not drawn) [Example 27, 6,7,8,9-Tetrahydro-3-methoxy-N,10-dimethylpyrido[1,2-a]indol-9-amine Hydrochloride] | 15.1
C#CCNC1CCCn2c1c(C)c1ccccc12.Cl (stereo not drawn) [Example 7, 6,7,8,9-Tetrahydro-10-methyl-N-(2-propynyl)pyrido[1,2-a]indol-9-amine Hydrochloride] | 22
COc1ccc2c(C)c3n(c2c1)CCCC3N(C)C.Cl (stereo not drawn) [Example 28, 6,7,8,9-Tetrahydro-3-methoxy-N,N,10-trimethylpyrido[1,2-a]indol-9-amine Hydrochloride] | 20
Cc1c2n(c3ccccc13)CCC(C)(C)C2N1CCCC1 (stereo not drawn) [Example 1, 6,7,8,9-Tetrahydro-8,8,10-trimethyl-9-(1-pyrrolidinyl)-pyrido[1,2,a]indole Hydrochloride] | 11.2
Cc1c2n(c3ccccc13)CCCC2N1CCOCC1.Cl (stereo not drawn) [Example 9, 6,7,8,9-Tetrahydro-10-methyl-9-(4-morpholinyl)-pyrido[1,2-a]indole Hydrochloride] | 32.4
CCC1(CC)CCn2c(c(C)c3ccccc32)C1N1CCCC1 (stereo not drawn) [Example 6, 8,8-diethyl-6,7,8,9-tetrahydro-10-methyl-9-(1-pyrolidinyl)pyrido[1,2-a]indole Hydrochloride] | 20
Br.Cc1c2n(c3ccccc13)CCC(C)(C)C2N(C)C (stereo not drawn) [Example 4, 6,7,8,9-Tetrahydro-N,N,8,8,10-pentamethylpyrido[1,2-a]indol-9-amine Hydrobromide] | 5
Cc1c2n(c3ccccc13)CCCC2N1CCCCC1.Cl (stereo not drawn) [Example 8, 6,7,8,9-Tetrahydro-10-methyl-9-(1-piperidinyl)-pyrido[1,2-a]indole Hydrochloride] | 55.7
Cc1c2n(c3ccccc13)CCCC2N1CCCC1.Cl (stereo not drawn) [Example 2, 6,7,8,9-Tetrahydro-10-methyl-9-(1-pyrrolidinyl)pyrido[1,2-a]indole Hydrochloride] | 83.3
Br.Cc1c2n(c3ccc(O)cc13)CCC(C)(C)C2N1CCCC1 (stereo not drawn) [Example 33, 6,7,8,9-Tetrahydro-2-hydroxy-8,8,10-trimethyl-9-(1-pyrrolidinyl)-pyrido[1,2-a]indole Hydrobromide] | 20

Test: not given
Conditions: scopolamine alone; passive avoidance; cited from earlier work

SMILES | memory effect of scopolamine (in words)
CN1[C@@H]2C[C@@H](OC(=O)[C@H](CO)c3ccccc3)C[C@H]1[C@@H]1O[C@@H]12 [scopolamine] | impairs the rat's ability to remember to avoid the darkened enclosure

Test: Passive avoidance test: prevention of scopolamine-induced memory impairment in rats
Assay type: in vivo, male Sprague-Dawley rats
Conditions: 30 mg/kg test compound, oral, 75 or 90 min before training; scopolamine 2 mg/kg s.c.; retention test 24 h later, 180 seconds access
Procedure: In the test, a rat must remember to avoid a darkened enclosure where it had been shocked the previous day.
This passive avoidance procedure uses a test chamber divided into two compartments: a lighted compartment and a dark compartment.
The two compartments are separated by a solenoid-operated slide door. An inescapable foot shock (750 μA for two seconds) can be presented to the grid floor of the dark compartment.
On the training day, male Sprague-Dawley rats (eight animals are tested per group) are placed in the lighted compartment and given access to the adjacent dark compartment. Upon entering the dark compartment, the rat is given an inescapable foot shock. Twenty-four hours later retention (memory) is tested: the rat is placed in the lighted compartment and allowed access to the dark compartment for 180 seconds.
Compounds to be tested are dissolved in 0.9% saline or suspended in Tween 80 (0.2% v/v in saline) or methyl cellulose (0.5% w/v in distilled water). […] Appropriate vehicle and control groups are included with each experiment. Each animal is given a single training trial.

SMILES | mean entry latency on retention day [s]
Cc1c2n(c3ccccc13)CCC(C)(C)C2N1CCCC1 (stereo not drawn) [Example 1, 6,7,8,9-Tetrahydro-8,8,10-trimethyl-9-(1-pyrrolidinyl)-pyrido[1,2,a]indole Hydrochloride] | 152
Cc1c2n(c3ccccc13)CCCC2N1CCCC1.Cl (stereo not drawn) [Example 2, 6,7,8,9-Tetrahydro-10-methyl-9-(1-pyrrolidinyl)pyrido[1,2-a]indole Hydrochloride] | 135
